# Measured values published in US5776946A, “Peripheral benzodiazepine receptor ligands as antiinflammatory agents” (priority 1995, dated 1998).
# Where “and” joins values, the source holds several entries; their conditions need not be identical. Equal values may be shown once. Read-outs that look alike come from different tables or passages of the source.
# What was measured:
# MRL-lpr mice = assay: CFA-induced disease in MRL-lpr mice, joint histopathology; assay type: in vivo, mouse; details: for Severity of Disease Sign Total / Severity of Disease Sign (1) subsynovial inflammation / Severity of Disease Sign (2) synovial hyperplasia / Severity of Disease Sign (3) pannus formation / Severity of Disease Sign (4) bone destruction: day 30, mean ± S.D.; for Severity of Disease Sign (1) subsynovial inflammation / Severity of Disease Sign (2) synovial hyperplasia / Severity of Disease Sign (3) pannus formation / Severity of Disease Sign (4) bone destruction: scale 0-4
# Excerpt: MRL-lpr mice are a widely studied strain which spontaneously develop a particularly severe autoimmune disorder. Pathologies that are found in a variety of human idiopathic inflammatory and autoimmune diseases are reproduced in these animals. They are therefore considered to be an outstanding model for such individual human diseases, although the pathology represents a combination of several of them. They are regarded as the best animal model for rheumatoid arthritis (Koopman and Gay, 1988) , systemic lupus erythematous (Bartlett et al., 1988)., and Sjogren's syndrome (Hayashi et al., 1994). […] They develop behavioral and neurological deficits (Sakic et al., 1993), as well as evidence of CNS inflammation (Vogelweid et al., 1991) which is seen in isolation in such diseases as Alzheimer type dementia and multiple sclerosis, but is also part of the syndrome in systemic lupus erythematosus and Sjogren's syndrome. The model is considered to be a particularly demanding one for screening antiinflammatory agents because of the severity and comprehensiveness of the disease pathology. […] The lesions include synovial inflammation, synovial cell proliferation, pannus formation, and articular cartilage erosion and bone destruction. Only powerful antiinflammatory agents will inhibit the devastating changes that accompany this genetic disorder. Mice of the MRL-lpr strain spontaneously develop a mild form of the disease at several months of age. The onset can be accelerated by injection of complete Freund's adjuvant (CFA) supplemented to 10 mg/ml with heat-inactivated M. tuberculosis, at 13-14 weeks of age, with 67-82% of animals becoming affected within 1 month (Ratkay et al., 1994; Ratkay et al., 1993).
# Daily injections were continued until day 14. The animals were sacrificed at day 30 and joint histopathology assessed. […] The results were compared with those in littermates receiving CFA only (N=7). Following sacrifice, animals were evaluated for subsynovial inflammation, synovial hyperplasia, cartilage destruction and pannus formation, and bone destruction.
# ^A The histopathological changes were assessed on a scale of 0 (no
# change) to 4 (severe change) for the following indices: (1) subsynovial
# inflammation; (2) synovial hyperplasia; (3) pannus formation; and (4) bon
# destruction. For methods see Ratkay et al., 1994.
# [1] = target: T1, peripheral benzodiazepine receptors, human Alzheimer and control cortical tissue (Homo sapiens, UniProt P30536); assay: Specific high affinity binding of PK 11195 to Alzheimer and control cortical tissue; details: PK 11195 at 3 nM
# T1 construct: from tissue; host or cells: human cortical brain tissue, Alzheimer and neurologically normal control
# Excerpt: The standard method of Schoemaker et al., 1983 was employed.
# [2] = tested on: cultured rat peritoneal macrophages; assay: Respiratory burst in cultured rat peritoneal macrophages activated by opsonized zymosan; assay type: cell-based; details: Peritoneal macrophage; for activity at 1000 µM: 10^-3 M
# Excerpt: Its main function is to protect the body from hostile invaders by generating superoxide radicals, but inappropriate activation can damage host tissue. Oxidative stress is believed to be one of the more harmful concomitants of inflammation. The respiratory burst system can be activated in cultured peritoneal macrophages in multiple ways, including exposure to zymosan particles opsonized by complement proteins (Klegeris and McGeer, 1994).
# For methods see Klegeris and McGeer, 1994.
# [3] = target: T2, peripheral benzodiazepine receptors, mouse peritoneal macrophages (Mus musculus, UniProt P50637); details: read-out: affinity; cited from earlier work
# T2 construct: host or cells: mouse peritoneal macrophages (Zavala and Lenfant, 1987b)
# [4] = target: T1, peripheral benzodiazepine receptors, human Alzheimer and control cortical tissue; details: McGeer et al., 1988; cited from earlier work
# [5] = target: T3, peripheral benzodiazepine receptors in brain (Homo sapiens, UniProt P30536); details: read-out: ability to displace bound PK 11195 from peripheral benzodiazepine receptors (Ki); cited from earlier work
# T3 construct: host or cells: brain (Doble et al., 1987)
# [6] = read-out: Respiratory burst, Percent of Control (± S.E.), substance given After OZ
# [7] = read-out: Respiratory burst, Percent of Control (± S.E.), substance given Before OZ
# [8] = after opsonized zymosan, read-out: Respiratory burst, Percent of Control (± S.E.), substance given After OZ
# [9] = before opsonized zymosan, read-out: Respiratory burst, Percent of Control (± S.E.), substance given Before OZ
# [10] = 10^-4 M, after opsonized zymosan, read-out: Respiratory burst, Percent of Control (± S.E.), substance given After OZ
# [11] = 10^-4 M, before opsonized zymosan, read-out: Respiratory burst, Percent of Control (± S.E.), substance given Before OZ
# [12] = 10^-5 M, before opsonized zymosan, read-out: Respiratory burst, Percent of Control (± S.E.), substance given Before OZ
# T1 sequence (P30536 whole entry): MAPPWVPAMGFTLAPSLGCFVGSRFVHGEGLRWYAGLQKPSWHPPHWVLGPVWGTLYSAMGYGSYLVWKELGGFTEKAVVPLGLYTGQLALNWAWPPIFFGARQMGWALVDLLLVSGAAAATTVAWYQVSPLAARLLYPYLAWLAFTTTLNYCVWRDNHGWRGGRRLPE
# T3 sequence (P30536 whole entry): as above
# T2 sequence (P50637 whole entry): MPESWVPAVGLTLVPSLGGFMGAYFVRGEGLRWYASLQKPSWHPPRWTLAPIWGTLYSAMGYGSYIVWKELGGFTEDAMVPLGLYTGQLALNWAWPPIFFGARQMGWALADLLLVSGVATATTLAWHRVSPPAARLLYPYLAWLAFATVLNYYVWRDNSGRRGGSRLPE
smiles,measurement,setting,value
"CCC(C)N(C)C(=O)c1cc2ccccc2c(-c2ccccc2Cl)n1 (stereo not drawn) [PK 11195, 1-(2-chlorophenyl)-N-methyl-N-(1-methylpropyl)-3-isoquinolinecarboxamide]",Severity of Disease Sign Total,MRL-lpr mice; 0.1 mg/kg s.c. daily to day 14,1.40 ± 0.48
same,Severity of Disease Sign (1) subsynovial inflammation,MRL-lpr mice; 0.1 mg/kg s.c. daily to day 14,0.70 ± 0.26
same,Severity of Disease Sign (2) synovial hyperplasia,MRL-lpr mice; 0.1 mg/kg s.c. daily to day 14,0.70 ± 0.26
same,Severity of Disease Sign (3) pannus formation,MRL-lpr mice; 0.1 mg/kg s.c. daily to day 14,0.00 ± 0.00
same,Severity of Disease Sign (4) bone destruction,MRL-lpr mice; 0.1 mg/kg s.c. daily to day 14,0.00 ± 0.00
same,Severity of Disease Sign Total,MRL-lpr mice; 0.5 mg/kg s.c. daily to day 14,1.25 ± 0.53
same,Severity of Disease Sign (1) subsynovial inflammation,MRL-lpr mice; 0.5 mg/kg s.c. daily to day 14,0.62 ± 0.26
same,Severity of Disease Sign (2) synovial hyperplasia,MRL-lpr mice; 0.5 mg/kg s.c. daily to day 14,0.50 ± 0.27
same,Severity of Disease Sign (3) pannus formation,MRL-lpr mice; 0.5 mg/kg s.c. daily to day 14,0.00 ± 0.00
same,Severity of Disease Sign (4) bone destruction,MRL-lpr mice; 0.5 mg/kg s.c. daily to day 14,0.12 ± 0.12
same,Severity of Disease Sign Total,MRL-lpr mice; 1 mg/kg s.c. daily to day 14,1.14 ± 0.14
same,Severity of Disease Sign (1) subsynovial inflammation,MRL-lpr mice; 1 mg/kg s.c. daily to day 14,0.43 ± 0.20
same,Severity of Disease Sign (2) synovial hyperplasia,MRL-lpr mice; 1 mg/kg s.c. daily to day 14,0.71 ± 0.18
same,Severity of Disease Sign (3) pannus formation,MRL-lpr mice; 1 mg/kg s.c. daily to day 14,0.00 ± 0.00
same,Severity of Disease Sign (4) bone destruction,MRL-lpr mice; 1 mg/kg s.c. daily to day 14,0.00 ± 0.00
same,reduction of the total histopathological score observed in control mice,MRL-lpr mice; even at the lowest dose of 0.1 mg/kg,more than 70%
same,"efficacy compared with results of Ratkay et al., 1994",MRL-lpr mice; lowest dose 0.1 mg/kg,"more effective than ten times that dose of indomethacin, forty times that dose of cyclosporin"
same,"Specific High Affinity Binding, Alzheimer cortical tissue, Means ± S.E.",[1]; Alzheimer,449 ± 25 fentamoles/mg protein
same,"Specific High Affinity Binding, Alzheimer cortical tissue, individual cases",[1]; Alzheimer,480 fentamoles/mg protein and 585 fentamoles/mg protein and 400 fentamoles/mg protein and 450 fentamoles/mg protein and 395 fentamoles/mg protein and 408 fentamoles/mg protein and 422 fentamoles/mg protein
same,"Specific High Affinity Binding, Control cortical tissue, Means ± S.E.",[1]; Control,165 ± 25 fentamoles/mg protein
same,"Specific High Affinity Binding, Control cortical tissue, individual cases",[1]; Control,201 fentamoles/mg protein and 94 fentamoles/mg protein and 265 fentamoles/mg protein and 118 fentamoles/mg protein and 141 fentamoles/mg protein and 111 fentamoles/mg protein and 222 fentamoles/mg protein
same,activity at 1 µM,[2]; [6],97.9 ± 0.2%
same,activity at 10 µM,[2]; [6],83.5 ± 8.7%
same,activity at 100 µM,[2]; [6],47.1 ± 13.6%
same,activity at 1 µM,[2]; [7],99 ± 5.6%
same,activity at 10 µM,[2]; [7],87.9 ± 5.5%
same,activity at 100 µM,[2]; [7],48.9 ± 10.8%
same,inhibition at 100 µM,[2]; read-out: inhibition of respiratory burst,> 50%
same,Kd,[3],5.6 nM
"COc1ccc2c(c1)c(CC(=O)O)c(C)n2C(=O)c1ccc(Cl)cc1 [Indomethacin, indomethacin]",activity at 1000 µM,[2]; [8],64.8 ± 9.4%
same,activity at 1000 µM,[2]; [9],36 ± 12.5%
same,activity at 100 µM,[2]; [10],101 ± 2.1%
same,activity at 100 µM,[2]; [11],86.3 ± 10.9%
same,activity at 10 µM,[2]; [12],101 ± 3.5%
"CN1C(=O)CN=C(c2ccc(Cl)cc2)c2cc(Cl)ccc21 [Ro 5-4864, 4'-chlorodiazepam]",high affinity binding to Alzheimer versus neurologically normal brain tissue,[4],greater high affinity binding to Alzheimer brain tissue than to neurologically normal brain tissue
same,Ki,[5],178 nM
same,activity at 1 µM,[2]; [7],94.6 ± 12.2%
same,activity at 10 µM,[2]; [7],85.4 ± 2.5%
same,activity at 100 µM,[2]; [7],74.7 ± 1.9%
"CCN(CC)C(=O)C(C)Cc1cc(-c2ccccc2)nc2ccccc12 (single isomer, unassigned) [PK-14067, 1-N,N-diethyl-a-methyl-2-phenylquinoline-4-propranamide]",Ki,[5],44 nM
"Nc1ccc(S(=O)(=O)c2ccc(N)cc2)cc1 [Dapsone, dapsone]",activity at 100 µM,[2]; [10],90.3 ± 6.2%
same,activity at 100 µM,[2]; [11],73.6 ± 4.6%
same,activity at 10 µM,"[2]; 10^-5 M, after opsonized zymosan, read-out: Respiratory burst, Percent of Control (± S.E.), substance given After OZ",96.4 ± 1.6%
same,activity at 10 µM,[2]; [12],94.7 ± 1.3%
"C[C@]12C=CC(=O)C=C1CC[C@@H]1[C@@H]2C(=O)C[C@@]2(C)[C@H]1CC[C@]2(O)C(=O)CO [Prednisone, prednisone]",activity at 1000 µM,[2]; [8],67 ± 11.6%
same,activity at 1000 µM,[2]; [9],62.5 ± 8.1%
same,activity at 100 µM,[2]; [10],102 ± 4.9%
same,activity at 100 µM,[2]; [11],88.8 ± 7.2%
